Reference: patent US20020142995A1, “Ammonium salts of hemoglobin allosteric effectors, and uses thereof” (priority 2000, published 2002)
“And” between values parts separate entries of the source, which are not always exact repeats. Equal values may be shown once. Read-outs that look alike come from different tables or passages of the source.

Assays:
whole blood = experiment: Blood oxygen dissociation (Hemox Analyzer) of whole blood pre-incubated with effector; type: cell-based; parameters: Observed P50: unit not given here; settings: for change of the P50 of treated Red Blood Cells vs. control: observation, whole blood incubated with effector; for P50 of treated-washed RBC pellet vs. control: after resuspended in HBS
Procedure: Whole blood was collected from one subject. The blood was stored in a Vacutainer with Solution A (ACD) and stored at 4-8° C.
Effector characteristics prior to incubation were:
(see Summary of Results below).
Washes: After incubation of whole blood with/without effector, blood cells were washed four times with Saline buffer or HBS (BSA) by centrifugal pelleting to remove exogenous effector and to evaluate hemolysis. […]
Blood Oxygen Dissociation Reading: Blood Oxygen Dissociation of samples were determined using a Hemox Analizer Model B (TCS Medical Products Company, New Hope, Pa.) The sample chamber contained:
10-20 μL Pelleted Blood Cells incubated with Effector.
All readings were made at 36.7-37.2° C. and at pH 7.28-7.32. The P50S were calculated from the Dissociation Curves (see FIGS. 16-23) compared to same day control P50.

[1] = Visual appearance of effector solution; type: physicochemical
Procedure: Preparation of Effector Stock: Effector stock was prepared at 100-120 mM (Molal solution) using water or Bis-Tris Buffer.

Red Blood Cells = experiment: Aggregation of red blood cells after incubation with effector; type: cell-based; settings: whole blood incubated with effector
Procedure: Incubation: Whole blood (75-300 μL) was incubated with 200 μL of effector at 37° C. for 5-10 min. (see Summary of Results below).
Washes: After incubation of whole blood with/without effector, blood cells were washed four times with Saline buffer or HBS (BSA) by centrifugal pelleting to remove exogenous effector and to evaluate hemolysis. After final centrifugation, pellet was not resuspended.

goldfish free hemoglobin = molecular target: T1, goldfish free hemoglobin (Carassius auratus, UniProt P02018+P02140); experiment: Oxygen dissociation curves of goldfish free hemoglobin with allosteric effectors; type: biochemical; parameters: unit not given beside the values
T1 construct: human and goldfish free hemoglobin controls; from tissue; host or cells: goldfish blood (erythrocyte hemoglobin freed from cells); inferred from 'free hemoglobin' beside 'whole blood'
T1 sequence (P02140 1-147): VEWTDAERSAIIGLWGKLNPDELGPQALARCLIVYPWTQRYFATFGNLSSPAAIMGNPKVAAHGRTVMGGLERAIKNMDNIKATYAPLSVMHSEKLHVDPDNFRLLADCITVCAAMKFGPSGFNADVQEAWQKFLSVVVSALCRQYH
T1 sequence (P02018 1-142): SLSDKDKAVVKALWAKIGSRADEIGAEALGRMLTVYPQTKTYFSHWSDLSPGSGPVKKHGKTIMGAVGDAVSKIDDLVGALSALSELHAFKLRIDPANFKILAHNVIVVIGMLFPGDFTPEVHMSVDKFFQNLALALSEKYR
Procedure: FIG. 3 tabulates the P50 values of human and goldfish whole blood controls, human and goldfish free hemoglobin controls, and goldfish free hemoglobin that has been pre-incubated with various allosteric effectors and an ammonium salt of one of them.
FIG. 5 depicts oxygen dissociation curves of human free hemoglobin (pH 7.1; […]), goldfish free hemoglobin (pH 7.1; P50=8.5), and goldfish free hemoglobin+0.25 μmol IHP (pH 7.1; P50=15.0).
FIG. 6 depicts oxygen dissociation curves of goldfish free hemoglobin+0.5 μmol PCHA-DPG (pH 7.1; P50=10.3), goldfish free hemoglobin+0.5 μmol ATP (pH 7.08; P50=21.0), and goldfish free hemoglobin+0.5 μmol GTP (pH 7.11; P50=23.0).

stripped hemoglobin = stripped hemoglobin (Homo sapiens, UniProt P68871); settings: cited from earlier work
Sequence of stripped hemoglobin (P69905 2-142 partner limits assumed): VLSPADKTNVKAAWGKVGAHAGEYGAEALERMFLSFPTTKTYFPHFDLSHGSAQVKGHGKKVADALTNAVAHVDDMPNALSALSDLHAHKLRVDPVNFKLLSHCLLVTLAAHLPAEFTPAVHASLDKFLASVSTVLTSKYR
Sequence of stripped hemoglobin (P68871 2-147 limits assumed): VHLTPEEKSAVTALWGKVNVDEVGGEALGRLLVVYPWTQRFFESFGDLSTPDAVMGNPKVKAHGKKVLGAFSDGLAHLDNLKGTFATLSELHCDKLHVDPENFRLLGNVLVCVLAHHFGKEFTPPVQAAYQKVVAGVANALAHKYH

human RBCs = settings: IHP encapsulated in human RBCs by electroporation; cited from earlier work
[2] = molecular target: allosteric site on hemoglobin (Homo sapiens, UniProt P68871); settings: displaces hemoglobin-bound 2,3-DPG; cited from earlier work
Sequence of allosteric site on hemoglobin (P69905 2-142 partner limits assumed): as the sequence (P69905 2-142 partner limits assumed) above
Sequence of allosteric site on hemoglobin (P68871 2-147 limits assumed): as the sequence (P68871 2-147 limits assumed) above

[3] = 75 μL whole blood incubated (2-5 min) with 200 μL 30 mM effector, washed 4×, 15 μL RBC measured at 37° C.
[4] = goldfish free hemoglobin + 0.5 μmol effector, pH 7.08-7.11

Row | Molecule | Observed P50 (whole blood; [3]) | change of the P50 of treated Red Blood Cells vs. control (whole blood) | appearance of the solution [1] | aggregation of Red Blood Cells (Red Blood Cells) | P50 (goldfish free hemoglobin; [4]) | also measured
1 | NC1CCCCC1 [CHA, Cyclohexylamine] | 28.5 and 26.8 | No change | visually clear | no aggregation | – | –
2 | Nc1nc2c(ncn2[C@@H]2O[C@H](COP(=O)(O)OP(=O)(O)OP(=O)(O)O)[C@@H](O)[C@H]2O)c(=O)[nH]1 [GTP] | – | – | – | – | 23.0 | –
3 | NC1CCCCC1.NC1CCCCC1.NC1CCCCC1.NC1CCCCC1.NC1CCCCC1.O=C(O)[C@@H](COP(=O)(O)O)OP(=O)(O)O [PCHA-DPG, 2,3 Diphospho-D-Glyceric Acid (Pentacyclohexyclammonium salt)] | 50.5 and 47.3 and 36.0 | Increases the P50 | visually clear | no aggregation | 10.3 | P50 of treated-washed RBC pellet vs. control (whole blood): maintain higher P50 than the control
4 | Nc1ncnc2c1ncn2[C@@H]1O[C@H](COP(=O)(O)OP(=O)(O)OP(=O)(O)O)[C@@H](O)[C@H]1O [ATP, adenosine triphosphate] | – | – | – | – | 21.0 | –
5 | O=C([O-])[C@@H](COP(=O)([O-])[O-])OP(=O)([O-])[O-].[Na+].[Na+].[Na+].[Na+].[Na+] [PNa-DPG, 2,3 Diphospho-D-Glyceric Acid (Pentasodium salt)] | 38.2 | No change | visually clear | no aggregation | – | Observed P50 (whole blood; 75 μL whole blood + 200 μL 30 mM effector, 2-5 min, 37° C., Hypotonic, Osm: 163 mOsM): 37.5; Observed P50 (whole blood; 75 μL whole blood + 200 μL 30 mM effector, 2-5 min, 37° C., Isotonic, Osm: 321 mOsM): 39.6
6 | Cyclohexylammonium-Inositol Hexaphosphate [CHA-IHP] | 42.0 and 58.2 and 32.8 | Increases the P50 | visually clear | no aggregation | – | Observed P50 (whole blood; 75 μL whole blood + 200 μL 30 mM effector, washed 4×, cell pellet stored for 48 hrs at 4-8° C., measured at 37° C.): 50.5; P50 of treated-washed RBC pellet vs. control (whole blood): maintain higher P50 than the control; P50 EFF:WB (whole blood; same sample as FIG. 12C, evaluated 48 h later (stored at 4-8 C.), 25 mM, 171 mOsM): 50.5 mmHg
7 | O=C(O)C(COP(=O)(O)O)OP(=O)(O)O (stereo not drawn) [2,3-Diphosphoglycerate] | – | – | – | – | – | half-saturation pressure P(O2) (½) (stripped hemoglobin; pH 7.4, 25 C.): 12.0 mm Hg; half-saturation pressure P(O2) (½) (stripped hemoglobin; pH 7.4, 37 C.): 23.7 mm Hg
8 | O=P(O)(O)O[C@H]1[C@H](OP(=O)(O)O)[C@@H](OP(=O)(O)O)[C@H](OP(=O)(O)O)[C@@H](OP(=O)(O)O)[C@H]1OP(=O)(O)O [IHP, myo-inositol hexakis (dehydrogen Phosphate)] | – | No change | visually clear | no aggregation | – | Observed P50 (whole blood; 75 μL whole blood + 200 μL 30 mM effector, 2-5 min, 37° C., Hypotonic, Osm: 185 mOsM): 37.5; P50 (goldfish free hemoglobin; goldfish free hemoglobin + 0.25 μmol effector, pH 7.1): 15.0; half-saturation pressure P(O2) (½) (stripped hemoglobin; pH 7.4, 25 C.): 48.4 mm Hg; half-saturation pressure P(O2) (½) (stripped hemoglobin; pH 7.4, 37 C.): 96.4 mm Hg; P50 of modified RBCs (human RBCs): approximately 50 torr; affinity for the allosteric site relative to 2,3-DPG [2]: one-thousand times greater affinity
